This assay deals with T1, Efl1 wild type in complex with Sdo1 and 60S subunits (Saccharomyces cerevisiae, UniProt P53893).
T1 construct: made in house; host or cells: Efl1: Saccharomyces cerevisiae; Sdo1: Escherichia coli C41; 60S subunits purified from S. cerevisiae strain JD1370
T1 sequence (P53893 1-1110): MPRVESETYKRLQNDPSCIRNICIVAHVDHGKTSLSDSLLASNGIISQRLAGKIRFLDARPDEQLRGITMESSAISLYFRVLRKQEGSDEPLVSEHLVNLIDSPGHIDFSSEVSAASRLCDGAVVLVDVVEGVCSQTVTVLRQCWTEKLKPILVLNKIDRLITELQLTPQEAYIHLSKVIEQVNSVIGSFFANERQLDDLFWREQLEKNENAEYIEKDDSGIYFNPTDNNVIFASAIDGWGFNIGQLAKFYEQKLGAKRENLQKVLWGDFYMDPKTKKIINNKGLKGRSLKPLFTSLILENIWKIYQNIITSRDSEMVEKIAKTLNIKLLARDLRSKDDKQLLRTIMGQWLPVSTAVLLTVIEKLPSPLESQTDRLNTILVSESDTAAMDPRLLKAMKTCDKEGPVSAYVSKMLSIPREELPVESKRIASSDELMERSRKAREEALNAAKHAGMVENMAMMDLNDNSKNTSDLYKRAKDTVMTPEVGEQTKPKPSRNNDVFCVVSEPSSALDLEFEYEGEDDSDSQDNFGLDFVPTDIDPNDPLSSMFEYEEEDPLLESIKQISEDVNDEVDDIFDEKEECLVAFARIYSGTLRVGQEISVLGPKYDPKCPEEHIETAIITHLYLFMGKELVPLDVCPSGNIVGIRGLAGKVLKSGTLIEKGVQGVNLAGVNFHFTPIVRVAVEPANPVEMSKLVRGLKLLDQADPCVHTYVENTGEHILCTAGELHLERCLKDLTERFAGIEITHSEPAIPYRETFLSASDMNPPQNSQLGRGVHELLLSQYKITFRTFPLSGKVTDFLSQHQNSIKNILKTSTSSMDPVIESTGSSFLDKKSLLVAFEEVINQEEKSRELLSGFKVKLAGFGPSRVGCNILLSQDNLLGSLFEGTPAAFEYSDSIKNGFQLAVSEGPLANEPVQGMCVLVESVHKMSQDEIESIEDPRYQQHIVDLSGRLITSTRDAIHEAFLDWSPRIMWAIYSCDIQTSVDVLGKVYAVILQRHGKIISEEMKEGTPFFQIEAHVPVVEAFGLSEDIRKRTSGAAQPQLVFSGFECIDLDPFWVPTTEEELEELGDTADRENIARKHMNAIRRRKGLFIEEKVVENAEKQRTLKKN
T1 sequence (Q07953 1-250 partner): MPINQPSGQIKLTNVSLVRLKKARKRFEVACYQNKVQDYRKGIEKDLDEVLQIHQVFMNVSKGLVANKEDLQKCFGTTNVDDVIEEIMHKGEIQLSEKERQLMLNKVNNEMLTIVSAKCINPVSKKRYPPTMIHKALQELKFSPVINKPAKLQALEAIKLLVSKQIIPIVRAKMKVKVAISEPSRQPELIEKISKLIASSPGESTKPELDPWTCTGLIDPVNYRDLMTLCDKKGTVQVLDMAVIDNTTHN
Nature of the assay: Steady state fluorescence binding of mant-GTP to Efl1 wild type in complex with Sdo1 and 60S subunits. Particulars: 25 °C, one-binding-site model; read-out: dissociation constant (Kd). As for the experimental part:
We measured the binding of different Efl1 constructs present in complex with Sdo1 and 60S subunits to the fluorescence GTP analogue, mant-GTP, by following the increase in the fluorescence signal after excitation at 355 nm. Fluorescence intensities were plotted as a function of increasing nucleotide concentrations, and the dissociation constant (Kd) was calculated by fitting the data to a one-binding-site model (Supplementary Figure S1B).
Hydrolysis of GTP was measured using the Enzchek Phosphate Assay kit (Molecular Probes) as described by Webb. Standard reactions consisted of 100 µL containing 6 µM of Efl1 R1086Q and Efl1 L910K, 0.3 mM MESG, 1.0 U purine nucleoside phosphorylase (PNP) and the indicated amounts of GTP. […]
Reactions were initiated and the GTPase was added after 3 min. Time courses were followed by recording the change in absorbance at 360 nm in a Cary 60 UV -Vis spectrophotometer (Agilent Technologies). Background absorbance was recorded prior to the addition of the GTPase and subtracted from the sample signals. The slope of the measured time courses corresponded to the GTP hydrolysis rate. […] Data were analysed by nonlinear regression to the M ichaelis-Menten equation with the program Origin Version 5.0 (OriginLab, Co., Northampton, MA). […]
Steady state fluorescence measurements […]
Maximum emission at 440 nm was replotted as a function of nucleotide concentration and analysed

The results in this text go back to publication PMC9405973, “Altered Conformational Landscape upon Sensing Guanine Nucleotides in a Disease Mutant of Elongation Factor-like 1 (EFL1) GTPase” (Biomolecules, 2022).

The structures appear in SMILES notation.

As to `CNc1ccccc1C(=O)O[C@H]1[C@@H](O)[C@H](n2cnc3c(=O)[nH]c(N)nc32)O[C@@H]1COP(=O)(O)OP(=O)(O)OP(=O)(O)O` [mant-GTP], the Kd was 36 µM.

Broadly, the Kd is the concentration at which binding is half-saturated.
